# PMC7762994 (Viruses, 2020)
# Where two headings read alike, the source gives them in different places.
# Columns and labels:
# [1] = biological target: T1, HSPA1A (Homo sapiens, UniProt P0DMV8); test: 2D-TPP in U87 cells
# [2] = biological target: OGG1 (Homo sapiens, UniProt O15527); test: Cellular thermal shift assay (CETSA), Western blot; format: binding; design: endogenous in cells; host or cells: SW13 or U87 cells
# [3] = biological target: T2, HYOU1 (Homo sapiens, UniProt Q9Y4L1); test: 2D-TPP in U87 cells; format: binding; settings: 1.5 h, stabilized, read-out: pEC50 of protein stabilization, HYOU1 (converted)
# T2 construct: endogenous in cells; host or cells: U87 cells
# [4] = system: Hazara virus (HAZV); test: microbe, parasite or virus in culture; format: cell-based; settings: Hazara virus
# [5] = biological target: T3, Hsp70 - HAZV NP interaction (Homo sapiens, UniProt P0DMV8); test: Hsp70 immunoprecipitation in HAZV-infected Hek293T cells; format: cell-based; settings: HAZV MOI 1, 20 μM, 1 h, statistically not significant
# T3 construct: endogenous in cells; host or cells: HEK293T cells infected with HAZV (MOI 1)
# [6] = system: CoV 229E; test: CoV 229E titer in Huh7 cells, end-point dilution assay; format: cell-based, Coronavirus 229E; settings: MOI 5, 10 µM, 24 h
# [7] = biological target: T4, DNAJC3 (Homo sapiens, UniProt Q13217); test: 2D-TPP in U87 cells
# [8] = biological target: T5, HSPA2 (Homo sapiens, UniProt P54652); test: 2D-TPP in U87 cells; format: binding; settings: 1.5 h, destabilized, read-out: pEC50 of protein destabilization, HSPA2 (converted)
# T5 construct: endogenous in cells; host or cells: U87 cells
# [9] = system: Hazara virus (HAZV); test: microbe, parasite or virus in culture; format: cell-based; settings: SW13, 24 h
# [10] = biological target: T6, EDEM3 (Homo sapiens, UniProt Q9BZQ6); test: 2D-TPP in U87 cells; format: binding; design: endogenous in cells; host or cells: U87 cells; settings: 1.5 h, stabilized, read-out: pEC50 of protein stabilization, EDEM3 (converted)
# [11] = biological target: T7, CALR (Homo sapiens, UniProt P27797); test: 2D-TPP in U87 cells; format: binding; settings: 1.5 h, stabilized, read-out: pEC50 of protein stabilization, CALR (converted)
# T7 construct: endogenous in cells; host or cells: U87 cells
# [12] = biological target: T4, DNAJC3; test: TPP-TR in HAZV-infected SW13 cells; settings: 20 μM, 4 h
# [13] = biological target: T8, DNAJB11 (Homo sapiens, UniProt Q9UBS4); test: TPP-TR in HAZV-infected SW13 cells
# T8 sequence (Q9UBS4 23-358): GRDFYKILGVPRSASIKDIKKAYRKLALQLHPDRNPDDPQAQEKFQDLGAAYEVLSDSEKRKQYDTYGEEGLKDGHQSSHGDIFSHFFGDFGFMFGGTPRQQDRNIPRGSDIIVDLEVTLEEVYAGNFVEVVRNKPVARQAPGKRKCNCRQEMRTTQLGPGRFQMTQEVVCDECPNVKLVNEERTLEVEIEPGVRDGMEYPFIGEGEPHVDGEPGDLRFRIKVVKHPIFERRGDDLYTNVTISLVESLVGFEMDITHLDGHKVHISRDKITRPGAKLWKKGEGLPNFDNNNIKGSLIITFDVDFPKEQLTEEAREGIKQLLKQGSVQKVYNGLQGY
# [14] = biological target: HARS2 (Homo sapiens, UniProt P49590); test: TPP-TR in HAZV-infected SW13 cells; settings: read-out: ΔTm of HARS2
# [15] = biological target: T6, EDEM3; test: TPP-TR in HAZV-infected SW13 cells; settings: 20 μM, 4 h
# [16] = biological target: T9, DNAJC13 (Homo sapiens, UniProt O75165); test: 2D-TPP in U87 cells; format: binding; settings: 1.5 h, stabilized, read-out: pEC50 of protein stabilization, DNAJC13 (converted)
# T9 construct: endogenous in cells; host or cells: U87 cells
# [17] = biological target: T10, HSP90B1 (Homo sapiens, UniProt P14625); test: 2D-TPP in U87 cells; format: binding; settings: 1.5 h, stabilized, read-out: pEC50 of protein stabilization, HSP90B1 (converted)
# T10 construct: endogenous in cells; host or cells: U87 cells
# [18] = biological target: T11, HSPA9 (Homo sapiens, UniProt P38646); test: 2D-TPP in U87 cells; format: binding
# T11 construct: endogenous in cells; host or cells: U87 cells
# [19] = system: SW13 cells; test: Viability of SW13 cells by nuclei count in the HAZV antiviral assay; format: cell-based; settings: Homo sapiens; HAZV, SW13, MOI 1, 24 h; read-out: Viability (nuclei count) EC50
# [20] = biological target: T1, HSPA1A; test: TPP-TR in HAZV-infected SW13 cells; settings: 20 μM, 4 h
# [21] = biological target: T12, HSPA8 (Homo sapiens, UniProt P11142); test: 2D-TPP in U87 cells; format: binding; settings: 1.5 h, destabilized, read-out: pEC50 of protein destabilization, HSPA8 (converted)
# T12 construct: endogenous in cells; host or cells: U87 cells
# [22] = biological target: T13, Hsp70 (Homo sapiens, UniProt P0DMV8); test: Cellular thermal shift assay; format: binding; settings: U87 and SW13 cells, 56 and 59 °C, CETSA-TR at 20 μM and dose dependently
# T13 construct: endogenous in cells; host or cells: U87 or SW13 cells
# T4 sequence (Q13217 32-504): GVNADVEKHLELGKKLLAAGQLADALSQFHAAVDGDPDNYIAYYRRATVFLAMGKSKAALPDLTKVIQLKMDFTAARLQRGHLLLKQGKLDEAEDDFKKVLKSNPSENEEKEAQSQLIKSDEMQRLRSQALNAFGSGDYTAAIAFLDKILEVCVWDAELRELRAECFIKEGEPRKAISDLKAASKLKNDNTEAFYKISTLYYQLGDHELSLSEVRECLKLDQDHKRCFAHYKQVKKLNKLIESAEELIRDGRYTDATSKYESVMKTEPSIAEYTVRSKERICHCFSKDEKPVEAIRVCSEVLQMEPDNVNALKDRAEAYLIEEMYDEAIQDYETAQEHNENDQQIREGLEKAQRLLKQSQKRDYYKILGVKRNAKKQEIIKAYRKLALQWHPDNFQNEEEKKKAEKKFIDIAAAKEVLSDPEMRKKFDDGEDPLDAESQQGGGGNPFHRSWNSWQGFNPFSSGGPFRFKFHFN
# Sequence of OGG1 (O15527 whole entry): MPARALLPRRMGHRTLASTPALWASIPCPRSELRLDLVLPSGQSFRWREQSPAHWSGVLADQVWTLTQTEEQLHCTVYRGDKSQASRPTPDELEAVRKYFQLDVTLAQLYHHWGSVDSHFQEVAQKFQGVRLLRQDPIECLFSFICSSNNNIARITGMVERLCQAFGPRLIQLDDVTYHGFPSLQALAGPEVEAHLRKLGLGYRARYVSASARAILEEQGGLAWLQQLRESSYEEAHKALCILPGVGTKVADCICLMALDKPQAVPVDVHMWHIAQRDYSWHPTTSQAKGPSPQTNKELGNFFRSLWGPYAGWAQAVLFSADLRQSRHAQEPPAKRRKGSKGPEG
# T6 sequence (Q9BZQ6 42-932): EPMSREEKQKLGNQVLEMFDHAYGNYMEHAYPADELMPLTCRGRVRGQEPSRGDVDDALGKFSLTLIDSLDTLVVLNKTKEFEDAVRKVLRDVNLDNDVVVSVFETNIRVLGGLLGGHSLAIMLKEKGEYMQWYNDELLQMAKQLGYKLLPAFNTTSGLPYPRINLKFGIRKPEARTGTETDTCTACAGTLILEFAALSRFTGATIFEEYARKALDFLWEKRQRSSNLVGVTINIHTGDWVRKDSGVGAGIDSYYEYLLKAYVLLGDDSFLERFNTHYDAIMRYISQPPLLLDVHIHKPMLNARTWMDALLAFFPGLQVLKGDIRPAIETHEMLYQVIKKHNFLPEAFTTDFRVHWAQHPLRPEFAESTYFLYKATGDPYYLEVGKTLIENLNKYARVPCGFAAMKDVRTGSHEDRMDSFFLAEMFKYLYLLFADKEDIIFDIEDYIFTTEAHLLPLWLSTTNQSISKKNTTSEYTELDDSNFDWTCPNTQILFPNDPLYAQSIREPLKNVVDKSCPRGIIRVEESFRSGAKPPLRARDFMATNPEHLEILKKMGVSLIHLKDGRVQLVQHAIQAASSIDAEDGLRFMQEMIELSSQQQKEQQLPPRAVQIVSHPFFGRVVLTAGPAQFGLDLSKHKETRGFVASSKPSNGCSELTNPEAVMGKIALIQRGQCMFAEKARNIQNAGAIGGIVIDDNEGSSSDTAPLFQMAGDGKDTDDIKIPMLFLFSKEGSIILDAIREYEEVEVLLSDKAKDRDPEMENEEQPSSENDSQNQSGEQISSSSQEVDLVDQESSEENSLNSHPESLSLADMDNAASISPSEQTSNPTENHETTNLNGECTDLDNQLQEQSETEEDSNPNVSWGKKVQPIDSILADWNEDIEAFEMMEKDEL
# T1 sequence (P0DMV8 whole entry): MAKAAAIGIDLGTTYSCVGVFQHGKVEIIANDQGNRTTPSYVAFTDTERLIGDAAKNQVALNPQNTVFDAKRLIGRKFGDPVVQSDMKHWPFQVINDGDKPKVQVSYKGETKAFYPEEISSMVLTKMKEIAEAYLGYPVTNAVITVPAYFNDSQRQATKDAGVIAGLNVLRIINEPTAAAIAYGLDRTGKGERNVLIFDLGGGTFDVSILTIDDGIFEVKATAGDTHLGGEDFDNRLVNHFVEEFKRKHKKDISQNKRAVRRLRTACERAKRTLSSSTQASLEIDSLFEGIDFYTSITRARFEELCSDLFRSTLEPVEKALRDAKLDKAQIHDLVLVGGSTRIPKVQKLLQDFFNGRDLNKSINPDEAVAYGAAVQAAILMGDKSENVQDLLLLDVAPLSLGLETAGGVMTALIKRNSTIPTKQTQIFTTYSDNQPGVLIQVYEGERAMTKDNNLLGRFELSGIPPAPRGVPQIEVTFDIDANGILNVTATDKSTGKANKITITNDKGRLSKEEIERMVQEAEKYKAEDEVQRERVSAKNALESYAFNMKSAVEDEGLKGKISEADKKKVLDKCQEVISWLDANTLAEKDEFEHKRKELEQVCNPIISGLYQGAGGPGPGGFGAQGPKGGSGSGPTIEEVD
# T10 sequence (P14625 22-803): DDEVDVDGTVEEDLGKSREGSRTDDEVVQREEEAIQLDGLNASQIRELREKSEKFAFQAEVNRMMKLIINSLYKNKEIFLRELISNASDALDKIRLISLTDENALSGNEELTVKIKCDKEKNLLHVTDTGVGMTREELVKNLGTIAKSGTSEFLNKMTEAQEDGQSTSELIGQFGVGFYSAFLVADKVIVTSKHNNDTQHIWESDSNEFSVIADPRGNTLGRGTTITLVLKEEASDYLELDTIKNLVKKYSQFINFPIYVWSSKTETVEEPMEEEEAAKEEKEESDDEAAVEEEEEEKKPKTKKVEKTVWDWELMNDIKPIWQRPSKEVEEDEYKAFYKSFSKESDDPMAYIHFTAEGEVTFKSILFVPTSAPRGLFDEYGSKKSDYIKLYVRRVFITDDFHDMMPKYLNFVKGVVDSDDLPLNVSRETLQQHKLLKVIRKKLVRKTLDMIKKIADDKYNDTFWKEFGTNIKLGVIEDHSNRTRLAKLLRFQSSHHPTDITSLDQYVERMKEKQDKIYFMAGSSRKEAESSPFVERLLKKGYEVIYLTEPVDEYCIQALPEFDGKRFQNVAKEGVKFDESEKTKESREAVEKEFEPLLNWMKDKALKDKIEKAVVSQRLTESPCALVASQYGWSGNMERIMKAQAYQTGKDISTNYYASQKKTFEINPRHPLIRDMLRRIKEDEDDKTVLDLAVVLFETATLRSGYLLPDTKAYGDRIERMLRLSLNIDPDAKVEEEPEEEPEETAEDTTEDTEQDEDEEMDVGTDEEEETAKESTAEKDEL
# T12 sequence (P11142 whole entry): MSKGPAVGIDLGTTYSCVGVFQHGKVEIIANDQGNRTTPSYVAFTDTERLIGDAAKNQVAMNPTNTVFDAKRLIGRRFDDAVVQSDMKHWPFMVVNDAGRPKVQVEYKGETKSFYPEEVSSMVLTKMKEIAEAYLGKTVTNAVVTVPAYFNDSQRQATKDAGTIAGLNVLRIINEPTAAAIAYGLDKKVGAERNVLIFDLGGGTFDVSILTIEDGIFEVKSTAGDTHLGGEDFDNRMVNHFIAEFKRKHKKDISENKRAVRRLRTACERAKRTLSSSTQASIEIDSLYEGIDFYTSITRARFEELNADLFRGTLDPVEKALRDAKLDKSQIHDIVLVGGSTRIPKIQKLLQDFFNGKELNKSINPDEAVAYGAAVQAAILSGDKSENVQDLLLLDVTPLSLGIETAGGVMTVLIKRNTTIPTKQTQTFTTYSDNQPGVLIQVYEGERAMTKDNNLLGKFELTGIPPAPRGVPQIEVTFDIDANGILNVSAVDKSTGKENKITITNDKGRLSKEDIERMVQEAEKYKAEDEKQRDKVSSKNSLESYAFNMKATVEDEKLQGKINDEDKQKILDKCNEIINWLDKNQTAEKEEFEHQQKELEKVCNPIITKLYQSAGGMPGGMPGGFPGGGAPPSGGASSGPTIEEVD
# T3 sequence (P0DMV8 2-641): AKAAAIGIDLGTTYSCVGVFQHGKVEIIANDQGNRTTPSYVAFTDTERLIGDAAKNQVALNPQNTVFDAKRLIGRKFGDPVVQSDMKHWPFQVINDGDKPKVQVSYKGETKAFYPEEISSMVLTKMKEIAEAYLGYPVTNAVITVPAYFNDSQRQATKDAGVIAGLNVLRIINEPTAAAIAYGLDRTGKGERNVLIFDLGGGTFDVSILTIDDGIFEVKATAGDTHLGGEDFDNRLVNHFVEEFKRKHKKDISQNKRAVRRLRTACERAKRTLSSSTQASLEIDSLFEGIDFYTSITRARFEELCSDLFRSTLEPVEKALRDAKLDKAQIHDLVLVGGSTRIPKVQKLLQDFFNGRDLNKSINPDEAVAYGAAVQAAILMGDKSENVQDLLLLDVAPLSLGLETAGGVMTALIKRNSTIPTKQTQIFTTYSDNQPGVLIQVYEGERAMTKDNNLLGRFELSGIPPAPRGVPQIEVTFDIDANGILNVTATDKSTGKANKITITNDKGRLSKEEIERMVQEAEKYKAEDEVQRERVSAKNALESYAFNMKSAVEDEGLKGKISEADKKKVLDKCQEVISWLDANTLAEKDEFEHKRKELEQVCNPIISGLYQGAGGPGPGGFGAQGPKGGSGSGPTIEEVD
# Sequence of HARS2 (P49590 34-506): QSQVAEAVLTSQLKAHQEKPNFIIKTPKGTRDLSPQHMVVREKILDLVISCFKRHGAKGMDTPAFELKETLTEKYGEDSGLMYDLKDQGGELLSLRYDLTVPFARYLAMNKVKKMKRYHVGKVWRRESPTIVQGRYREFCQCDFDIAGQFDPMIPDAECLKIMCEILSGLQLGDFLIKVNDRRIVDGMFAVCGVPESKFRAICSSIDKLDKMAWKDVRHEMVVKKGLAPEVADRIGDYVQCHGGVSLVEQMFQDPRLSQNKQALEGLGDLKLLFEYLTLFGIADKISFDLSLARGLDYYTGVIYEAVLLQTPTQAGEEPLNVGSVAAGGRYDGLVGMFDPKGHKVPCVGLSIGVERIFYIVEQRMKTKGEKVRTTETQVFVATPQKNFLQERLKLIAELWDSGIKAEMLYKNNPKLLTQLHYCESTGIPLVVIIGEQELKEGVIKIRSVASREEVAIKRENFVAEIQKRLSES
structure (smiles),measurement,setting,value
"CCOC(=O)c1cnn(-c2cccc3c2[nH]c(=O)n3C2CCN(C(=O)Nc3ccc(I)cc3)CC2)c1 [TH6744, ethyl 1-(1-(1-((4-iodophenyl)carbamoyl)piperidin-4-yl)-2-oxo-2,3-dihydro-1H-benzo[d]imidazol-4-yl)-1H-pyrazole-4-carboxylate]",EC50,[1],3.16 µM
same,"binding to OGG1 (CETSA, Western blotting)","[2]; SW13 cells, 20 μM",binding to its known target OGG1
same,"binding to OGG1 (isothermal dose-response CETSA at 47 °C, Western blotting)",[2]; U87 cells,binding to its known target OGG1 in U87 cells
same,EC50,[3],10 µM
same,IC50,"[4]; SW13, 24 h, read-out: Antiviral on titer (µM) IC50 [µM]",2.9 µM
same,EC50,"[4]; SW13, read-out: EC50 Viral titer",2.9 µM
same,inhibition at 10 µM,"[4]; Vero, 24 h, read-out: Viral inhibition on titer (%)",90%
same,increase of HAZV NP interaction with Hsp70 (signal intensity),[5],2 fold
same,reduction of CoV 229E titer,[6],95%
same,EC50,[7],3.16 µM
same,EC50,[8],3.16 µM
same,IC50,[9]; read-out: Antiviral on primary infection IC50 [µM],10.9 µM
same,EC50,[9]; read-out: EC50 Infected cells (primary infection),10.9 µM
same,inhibition at 10 µM,[9]; read-out: Viral inhibition on primary infection (%),85%
same,EC50,[10],1 µM
same,EC50,[11],3.98 µM
same,thermal stability change of DNAJC3,[12],stabilized
same,thermal stability change of DNAJB11,"[13]; 20 μM, 4 h",stabilized
same,ΔTm at 20 µM,[13]; read-out: ΔTm of DNAJB11,13.6 °C
same,ΔTm at 20 µM,[14],-9.2 °C
same,thermal stability change of EDEM3,[15],stabilized
same,EC50,[16],1 µM
same,EC50,[17],6.31 µM
same,thermal stability change of HSPA9,[18],destabilized
same,EC50,[19],37.4 µM
same,thermal stability change of HSPA1A,[20],destabilized
same,EC50,[21],5.01 µM
same,Hsp70 thermal stability (CETSA),[22],Hsp70 destabilization
